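Interpolation was linear, between the two tested concentrations surrounding the appropriate level; five concentrations were tested over 48 hours in 96-well plates. TGI denotes the concentration required for complete inhibition of growth.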 A value given as a limit tells only on which side of the number the result lay.

This note sets out measurements from PubChem BioAssay (NCI).

Among the test systems are ACHN renal; HS 578T breast; HT29 colon; K-562 leukemia; MCF7 breast; MDA-N; NCI-H460 lung; NCI-H522 lung; OVCAR-4 ovarian; SW-620 colon; SK-OV-3 ovarian.
What all share (assay): NCI anticancer screen, dose series, 48 h

Take `Nc1nc(Cl)cc(OCC2(CO)CCCC2)n1`: the TGI in the assay on ACHN renal, in the assay on HS 578T breast, in the assay with HT29 colon, in the assay with K-562 leukemia, in the assay on MCF7 breast and in the assay on MDA-N was more than 100 µM in each case. In addition, the TGI with NCI-H460 lung, in the assay with NCI-H522 lung, with OVCAR-4 ovarian and in the assay with SW-620 colon was more than 100 µM in each case.

Regarding `CC(=O)O[C@H]1C(=O)[C@@]2(C)[C@H]([C@H](OC(=O)c3ccccc3)[C@]3(O)C[C@H](OC(=O)[C@H](O)[C@@H](NC(=O)c4ccccc4)c4ccc5ccccc5c4)C(C)=C1C3(C)C)[C@]1(OC(C)=O)CO[C@@H]1C[C@@H]2O`, the TGI in the assay on ACHN renal is more than 50 µM; with HS 578T breast, 0.148 µM; with HT29 colon, 1.96 µM; in the assay with K-562 leukemia, 2.05 µM; in the assay with MCF7 breast it was 0.879 µM; in the assay on MDA-N, 0.0202 µM. For the same compound, the TGI was 5.19 µM in the assay on NCI-H460 lung, more than 41 µM in the assay with OVCAR-4 ovarian, 0.836 µM in the assay with SK-OV-3 ovarian and more than 50 µM in the assay on SW-620 colon.

In the case of `CC(C)(C)NC1=NC(C(F)(F)F)(C(F)(F)F)NC(=O)N1`, the TGI with ACHN renal, in the assay on HS 578T breast, with HT29 colon, in the assay with K-562 leukemia, in the assay with MCF7 breast and in the assay on MDA-N was more than 100 µM each time. Further, the TGI in the assay with NCI-H460 lung, with OVCAR-4 ovarian, with SK-OV-3 ovarian and in the assay with SW-620 colon was more than 100 µM in each case.

With `Cc1cc2cc3cc(C)c(N)cc3nc2cc1N`, the TGI in the assay with ACHN renal is 1.6 µM; with HS 578T breast, 10.5 µM; in the assay on HT29 colon it was 1.6 µM; with K-562 leukemia, 3.28 µM; with MCF7 breast, 2.71 µM; in the assay on MDA-N it was 2.93 µM. Further, the TGI with NCI-H460 lung was determined as 1.21 µM; in the assay with NCI-H522 lung it was 1.7 µM; in the assay on OVCAR-4 ovarian, 1.49 µM; in the assay with SW-620 colon it was 1.6 µM.

Regarding `Cn1cnc(N2CCCC2)c(C#N)c1=S`, the TGI in the assay with ACHN renal, in the assay on HS 578T breast, with HT29 colon, in the assay with K-562 leukemia, in the assay with MCF7 breast and with MDA-N was more than 100 µM in each case. The TGI in the assay on NCI-H460 lung, with NCI-H522 lung, with OVCAR-4 ovarian and in the assay on SW-620 colon was more than 100 µM each time.

With `CC#C[C@]1(O)CCC2[C@@H]3CCC4=CC(=O)CCC4=C3[C@@H](c3ccc(N(C)C)cc3)C[C@@]21C` (some centres undefined), the TGI is more than 100 µM in the assay on ACHN renal; 33.9 µM in the assay on HS 578T breast; 28.7 µM in the assay with HT29 colon; 58.8 µM with K-562 leukemia; 20.8 µM in the assay with MCF7 breast; 49.3 µM with MDA-N. Further, the TGI was 28.3 µM in the assay with NCI-H460 lung, 33.5 µM in the assay with OVCAR-4 ovarian, 72.4 µM in the assay with SK-OV-3 ovarian and more than 100 µM in the assay with SW-620 colon.

In the case of `Cc1cc2c(c(C(=O)NCC(=O)N[C@@H](C)C(=O)OCc3ccccc3)c1)Oc1c(cc(C)cc1C(=O)NCC(=O)N[C@@H](C)C(=O)OCc1ccccc1)S2`, the TGI in the assay with ACHN renal is more than 100 µM; in the assay with HS 578T breast, 80.1 µM; with HT29 colon it was more than 100 µM; with K-562 leukemia, more than 100 µM; with MCF7 breast, more than 100 µM; in the assay with MDA-N it was more than 100 µM. In addition, the TGI in the assay with NCI-H460 lung, in the assay with OVCAR-4 ovarian, in the assay with SK-OV-3 ovarian and with SW-620 colon was more than 100 µM throughout.

Consider `O=C1c2ccccc2C(=O)N1n1c(Cc2ccc(Cl)cc2)n[nH]c1=O`, for which the TGI in the assay on ACHN renal, with HS 578T breast, in the assay with HT29 colon, with K-562 leukemia, in the assay with MCF7 breast and in the assay with MDA-N was more than 100 µM in each case. In addition, the TGI with NCI-H460 lung, in the assay with OVCAR-4 ovarian and in the assay on SW-620 colon was more than 100 µM in each case.

As to `COC(=O)c1c(O)ccc2c1c1cc3ccccc3cc1n2Cc1cc(OC)cc(OC)c1`, the TGI in the assay with ACHN renal was more than 100 µM; with HS 578T breast, 8.5 µM; in the assay with HT29 colon, more than 48.1 µM; in the assay on K-562 leukemia, more than 100 µM; in the assay on MCF7 breast it was more than 100 µM; with MDA-N it was 3.72 µM. Also, the TGI is more than 100 µM in the assay with NCI-H460 lung, 0.415 µM with NCI-H522 lung, more than 66.9 µM in the assay on OVCAR-4 ovarian and more than 100 µM in the assay on SW-620 colon.

`O=c1[nH]c2ccccc2c(O)c1Cc1ccccc1`: the TGI in the assay on ACHN renal, in the assay with HS 578T breast, in the assay with HT29 colon, in the assay with K-562 leukemia, with MCF7 breast and with MDA-N was more than 100 µM in each case. The TGI with NCI-H460 lung, in the assay on NCI-H522 lung, with OVCAR-4 ovarian and with SW-620 colon was more than 100 µM throughout.
